Data on 79 molecules can be found in the METLIN SMRT retention time set (Domingo-Almenara et al. 2019).

The nature of this data set: gradient 5% acetonitrile 3 min, to 50% in 2 min, to 85% in 15 min, held 3 min, 100 µL/min. To be noted: column: Zorbax Extend-C18 2.1 x 50 mm; eluents: water / acetonitrile, 0.1% formic acid. In outline: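 Retention time was recorded from adduct peaks, which were picked computationally and each inspected manually. Pure standards ran in mixtures of ~100 molecules on HPLC coupled to a quadrupole time-of-flight mass spectrometer, in positive and negative ionization mode, through a Zorbax Extend-C18 column (2.1 × 50 mm, 1.8 μm) at 100 μL/min. Eluents were water and acetonitrile, each with 0.1% formic acid.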
Molecule `O=C(c1cc(F)ccc1F)N1CCC2(CC1)NC(=O)N(Cc1ccc(Cl)cc1)C2=O` came in with an RP-LC retention time of 890 s.
With `Fc1cc(-c2cccc3ncc(-c4cnn(C5CCNCC5)c4)nc23)cc(F)c1CN1CCOCC1` the figure was 611 s.
The molecule `Cc1cc(=O)n(CC(=O)Nc2cccc(C)c2C)c(N)n1` registered an RP-LC retention time of 600 s.
With `CC(C(=O)NCCCN1CCCCC1)n1c2ccccc2c2cnn(C)c(=O)c21` (centres undefined) the figure was 618 s.
With `O=C(CC1CCN(C(=O)c2cc3ccccc3[nH]2)CC1)NCCN1CCCC1` the figure was 559 s; with `O=C(N[C@H]1C[C@@H]2C[C@H]1CN2S(=O)(=O)c1ccc(C(F)(F)F)cc1)c1cccnc1`, 794 s.
In the case of `COC(=O)c1ccccc1NC(=O)CSc1cc(N2CCN(c3ccccc3OC)CC2)ncn1` it was 905 s; in that of `O=S(=O)(CCc1ccccc1)N1CCN(c2ccc3nncn3n2)CC1`, 664 s.
`CCc1ccccc1NC(=O)COc1nc(C)nc2ccccc12` yielded an RP-LC retention time of 747 s.
With `O=C(Nc1cccc(F)c1)N1CCC(CCNC(=O)C2(c3ccccc3)CC2)CC1` the figure was 883 s; with `O=C(Nc1ccc(C2(C(=O)O)CCC2)cc1)C1CC1`, 710 s.
In the case of `CCCNC(=O)N1CCc2cc(-c3ccc(C(=O)N4CCOCC4)cc3)ccc21` it was 732 s; in that of `O=C(c1cc(F)ccc1Cl)N1CCN(C(=O)c2nnn3c2COC(c2ccccc2)C3)CC1` (centres undefined), 894 s.
In the case of `COCCC(=O)NCCC1CCN(C(=O)Nc2ccc(F)cc2F)CC1` it was 643 s; in that of `CCOC(=O)c1[nH]c2ccc(F)cc2c1NC(=O)CN(CC)CC`, 605 s.
`Cc1cn(C)nc1C(=O)N(CCN1CCOCC1)c1nc2c(C)ccc(C)c2s1` yielded an RP-LC retention time of 648 s.
In the case of `CCn1c(=O)oc2cc(-c3noc(-c4cccc(F)c4)n3)ccc21` it was 1110 s; in that of `COc1ccc(-c2noc(-c3ccc(=O)n(Cc4ccccn4)c3)n2)cc1OC`, 743 s.
With `O=C(CN1CCCc2nc(C3CC3)ncc2C1=O)NCCCN1CCCC1=O` the figure was 594 s; with `Cc1ccc2[nH]cc(CCNC(=O)C3CCN(c4ccc(Cl)cc4)C3=O)c2c1` (centres undefined), 987 s; with `O=C(C1CCN(S(=O)(=O)c2ccc3nc(-c4ccccc4)[nH]c3c2)CC1)N1CCCC1`, 699 s.
With `COc1ccc2c(c1)C=C(C(=O)NCC(=O)c1cccs1)C=CO2` the figure was 879 s; with `Cc1ccc(CN2CCN(CC(=O)N3CCN(Cc4ccccc4)CC3)C(=O)C2=O)cc1`, 640 s; with `CCOC(=O)N1CCN(C(=O)CSCC(=O)Nc2nc(-c3ccc(OC)cc3)cs2)CC1`, 841 s.
`O=C(Cc1nnc(-c2ccc3ncccc3c2)o1)Nc1ccc(F)c(F)c1`: the RP-LC retention time is 741 s.
With `O=C1CC(c2nc(-c3cccnc3)no2)CN1c1ccc2c(c1)OCO2` (centres undefined), the RP-LC retention time is 728 s.
`OC[C@H]1O[C@@H](n2cnc3c(NC4CCCC4)ncnc32)C(O)[C@H]1O` (some centres undefined) came in with an RP-LC retention time of 630 s.
In turn, `O=C(Nc1c(-c2ccc(F)cc2)nc2ccccn12)C1CC1` registered an RP-LC retention time of 578 s.
With `CC(=O)N1CCC2(CC1)CC(CC(=O)N(C)C)CCO2` (centres undefined) the figure was 587 s.
`CS(=O)(=O)N1CCN(CCNC(=O)NCc2cccc3ccccc23)CC1`: the RP-LC retention time came to 570 s.
The molecule `O=C(CCC1CCN(c2cc(NC3CC3)ncn2)CC1)NCCN1CCc2ccccc2C1` returned an RP-LC retention time of 574 s.
In the case of `CCn1cc(CN2CCCCC2c2nncn2Cc2ccccc2)cn1` (centres undefined) it was 575 s.
With `CC(C)Cc1csc(-c2csc(S(=O)(=O)NC3CCCCC3)c2)n1` the figure was 1320 s; with `CCN1CCCC1CNC(=O)Cn1c(=O)c2cccn2c2ccc(F)cc21` (centres undefined), 614 s.
With `N#Cc1cccc(CN2CCC(c3nncn3-c3ccccc3)CC2)c1` the figure was 584 s; with `CCC(=O)Nc1ccc2c(c1)CN(C(=O)c1c(F)cccc1F)C(C(=O)N1CCCC1)C2` (centres undefined), 700 s; with `Cc1c(-c2noc(C3CCCCC3)n2)nnn1-c1ccccc1`, 1160 s.
As to `CCCn1c(=O)c2cc(C(=O)NCc3ccc(C)cc3)nn2c2ccccc21`, the RP-LC retention time stood at 1030 s.
With `CCc1nc(N2CCc3ccccc3C2)ncc1C(=O)O` the figure was 953 s; with `CCc1cccc(NC(=O)Cn2c(N)nc(C)cc2=O)c1`, 618 s; with `CCOC(=O)c1ccc(Nc2c(C(=O)N3CCC(C)CC3)cnc3nc(C)ccc23)cc1`, 675 s.
In the case of `Cc1cc2[nH]c(C(=O)Nc3ccc(F)cc3)c(CN3CCOCC3)c2s1` it was 666 s; in that of `CC1CCN(Cc2nnc(-c3ccccc3)o2)CC1`, 601 s.
With `Cc1noc(C)c1Cc1ccc(C(=O)NCc2nn(C)c3c2CN(C)CC3)o1` the figure was 578 s; with `CCOc1ccccc1C(=O)N1CCc2c(c(-c3nc(C4CC4)no3)nn2C)C1`, 828 s; with `Cc1nn(-c2ccc(-c3ccccc3)nn2)c(C)c1S(=O)(=O)N1CCCC(C)C1` (centres undefined), 1170 s.
`CCOc1ccc(-n2cc(C(=O)OCC(=O)OC(C)(C)C)c3ccccc3c2=O)cc1` gave an RP-LC retention time of 1220 s.
With `CCn1c(C(=O)N2CCN(c3cccc(C)c3C)CC2)cc2sccc21` the figure was 1070 s; with `Cc1ccc(C)c(NC(=O)Cn2c(C(C)C)nc3c(c2=O)CCN(Cc2ccccc2)C3)c1`, 734 s; with `CC(NC(=O)c1csc(-c2ccc(N3CCCC3)nc2)n1)c1ccccn1` (centres undefined), 573 s.
With `Cc1ccc(NC(=O)C2CCN(S(=O)(=O)c3cc(C(=O)N(C)C)cs3)CC2)c(C)c1` the figure was 804 s; with `O=C(Cn1ccn2nc(-c3ccccc3)c(CO)c2c1=O)NC1CCCC1`, 721 s; with `O=C(Cn1c(=O)c2cccn2c2ccccc21)Nc1cccc(Cl)c1`, 904 s.
With `O=C(Cn1cnc2nc(-c3cccnc3)ncc2c1=O)Nc1ccc2c(c1)OCO2` the figure was 826 s; with `O=C(NCCNC(=O)c1ccc(N2CCOCC2)nn1)c1ccc(NC(=O)C2CC2)cc1`, 599 s; with `Cn1c(=O)n([C@H]2CCN(C(=O)c3ccc(Cn4ccnc4)o3)C2)c2ncccc21`, 573 s.
With `CCc1nc(-c2cc(S(=O)(=O)Nc3cc(F)ccc3Cl)c(C)s2)cs1`, the RP-LC retention time worked out at 1160 s.
With `O=C(C1CCCO1)N1CCC(Cc2nncn2CC2CC2)CC1` (centres undefined) the figure was 578 s; with `CCOc1cc(C(=O)NC(C(=O)Nc2nc3ccccc3[nH]2)C(C)CC)cc(OCC)c1OCC` (centres undefined), 854 s; with `CCOC(=O)c1cccc(NC(=O)Cn2c(=O)c(CCC(=O)NC)nc3ccccc32)c1`, 741 s.
With `CC(=O)N1CCCc2cc(S(=O)(=O)CCC(=O)Nc3ccc(Br)cc3F)ccc21` the figure was 824 s.
With `O=C(NCCC1=CCCCC1)C1CCN(C(=O)c2ncn3c2COC(c2ccccc2)C3)CC1` (centres undefined) the figure was 820 s.
The molecule `O=C(CSc1nnc2c(=O)n(-c3ccc(Br)cc3)ccn12)c1ccccc1` registered an RP-LC retention time of 866 s.
With `C=CCNC(=O)CCc1c(-c2ccc(Br)cc2)nc2ccccn12` the figure was 622 s.
With `CCCCC(=O)N1CCN(c2ccc(=O)n(-c3ccc(Cl)cc3)n2)CC1` the figure was 829 s; with `Cc1ccc2c(c1)C(=O)NC1(CCN(C(=O)Nc3ccc(C)c(C)c3)CC1)N2C`, 796 s.
`CCOC(=O)c1cccc(N2C=C(C(=O)OC)S(=O)(=O)c3ccccc32)c1` gave an RP-LC retention time of 858 s.
With `CCn1ccc2oc(C)c(C(=O)NCc3ccc(C(C)C)cc3)c2c1=O` the figure was 1130 s; with `Cc1nc2cccnc2n1CCN1CCN(C(=O)Nc2cccc(Br)c2)CC1`, 607 s.
In the case of `CCOc1ccc(NC(=O)Cn2c(=O)nc(N3CCC(C)CC3)c3ccccc32)cc1` it was 845 s; in that of `CCOc1ccc2ncc(C#N)c(NCc3ccccc3)c2c1`, 634 s.
The molecule `O=C(NCC1CN(c2ccc3c(c2)OCO3)C(=O)O1)Nc1ccccc1C(F)(F)F` (centres undefined) gave an RP-LC retention time of 768 s.
As to `O=C(Cn1cnc(-c2noc(-c3ccc(F)cc3)n2)c1)NCc1ccc(Cl)cc1`, the RP-LC retention time was 917 s.
With `CN(C)CCNC(=O)Cn1c(=O)n(-c2ccccc2)c2ncccc21` the figure was 579 s; with `CCCCN1C(=O)c2cc(S(=O)(=O)N3CCc4ccccc43)ccc2Oc2cccnc21`, 1260 s.
In the case of `Cc1ccc(-c2nc(C3CCN(S(=O)(=O)c4ccc5c(c4)CCC5)CC3)no2)cc1` it was 1310 s; in that of `COc1cc(C(c2nnnn2C(C)(C)C)N2CCN(c3ccccn3)CC2)cc(OC)c1OC` (centres undefined), 578 s; in that of `Cc1cc(NC(=O)Cn2ccn3nc(-c4ccccc4)c(CO)c3c2=O)no1`, 714 s.
In the case of `Cc1nc(CC(=O)NC2CCCC2)sc1C(=O)NCc1ccccc1` it was 734 s.
